Experimental data as given in patent US20150031102A1, “METHODS AND COMPOSITIONS FOR ENHANCED PRODUCTION OF BUTANOL BY CLOSTRIDIA” (Butrolix LLC, priority 2012, published 2015).
Entries after “also recorded” stand apart in the source; their conditions may differ. Marks after values point to notes of the source that are not given here.

Key:
C. acetobutylicum [1] = assay: Time course study of replicate 250 mL batch cultures (growth, butanol, residual glucose, yield, productivity); type: cell-based, Clostridium acetobutylicum; settings: for Residual glucose / Butanol yield from glucose / Butanol productivity: 50 nM peptide; for Residual glucose: initial glucose 60 g/L, average ± SD of triplicate; for Butanol yield from glucose: starting glucose 60 g/L; for Butanol concentration: Treated, average and standard deviation of triplicate samples
Protocol: Subsequently, time-course studies were conducted using the optimum peptide treatment level that was determined by the sequential batch transfer experiments. Untreated and peptide-treated cultures were grown in triplicate 250 mL batches that were inoculated with […] of the ninth sequential transfer from 24-well culture plates. The 1/1000 ratio of inoculum to culture volume was the same as that used throughout the prior sequential batch transfer experiments, and the replicate time course batch cultures corresponded to the 10th sequential batch transfer. Samples were recovered from the triplicate control and experimental batches a regular time intervals up to 96 hours of culture. Optical density of the replicates was measured and culture supernatants were recovered following centrifugation and analyzed later for butanol and residual glucose concentrations. The analyses were used to calculate yield and productivity of the cultures.
Clostridium acetobutylicum strain ATCC 824 was used in all experiments and the growth medium used for sequential batch transfer, time course, and continuous culture experiments contained yeast extract, casamino acids, L-cysteine, L-asparagine, phosphate buffer, trace minerals, and 6% glucose. What are believed to be quorum-sensing peptides that were used in the experiments were chemically synthesized peptides SEQ ID NO: 143 (amino acid sequence: SYPGWSW) and SEQ ID NO: 144 (amino acid sequence: ILILISG). Routine growth of the bacteria as well as the sequential batch and time course experiments were conducted in a Form a Scientific Model 1029 anaerobic gas chamber at 32° C. Continuous cultures were performed at 32° C. using duplicate New Brunswick Scientific BioFlo 3000 apparati with a dilution rate of 0.01 volume per hour, 75 rpm agitation, and nitrogen gas sparging. Optical density of culture samples was measured at 600 nm in a Beckman DU 600 series spectrophotometer and glucose was analyzed using a YSI Model 2700 Select Biochemistry Analyzer with internal glucose calibration. Butanol concentrations were determined by measuring experimental and standard samples using a Varian Saturn 3 Gas Chromatograph/Mass Spectrometer and calculating butanol concentrations using standard curves.
The study was started by inoculating triplicate 250 mL batches of untreated and peptide-treated medium with 250 μL of the corresponding ninth sequential transfer from 24-well culture plates. Therefore, the replicate time course batch cultures corresponded to the 10th sequential batch transfer. Samples were recovered from the triplicate control and experimental batches at regular time intervals up to 96 hours of culture for measurement of optical density at 600 nm and analysis of butanol and residual glucose concentrations.
Like the previous time course experiment, this study was started by inoculating triplicate 250 mL batches of untreated and peptide-treated medium with 250 μL of the corresponding ninth sequential transfer from 24-well culture plates. As before, samples were recovered from the triplicate control and experimental batches at regular time intervals up to 96 hours of culture for measurement of optical density and analysis of butanol and residual glucose concentrations.

C. acetobutylicum [2] = assay: Calculated optimum peptide treatment level (polynomial curve fitted to butanol concentration vs treatment level per culture transfer); type: cell-based, Clostridium acetobutylicum; settings: for Calculated optimum peptide treatment level: first experiment using BP110517
Source text: FIG. 20. Calculation of optimum peptide treatment level for transfer 13 of the first experiment that tested peptide BP110517 (SEQ ID NO:143) (see Table 1 for data). The four butanol concentration data points were graphed against the treatment levels and a polynomial curve was fitted to the graph.
The data from the sequential batch culture experiments treated with peptides BP110517 and BP1106213 were used to calculate optimum peptide treatment levels for enhanced butanol production by C. acetobutylicum. The calculation was made for each culture transfer using the butanol concentration results from control and experimental wells. The four data points for each culture transfer were graphed against the treatment levels, and a polynomial curve was fitted to the graph.
Then, the first derivative of the polynomial fitted to the data for each culture transfer was solved for “x”, which was the maximum point of the fitted polynomial curve (Table 46). The resulting peptide concentration value was assumed to be close to an optimum peptide treatment level that would result in enhanced butanol production.

In the case of SYPGWSW [peptide SEQ ID NO: 143], the Residual glucose (C. acetobutylicum [1]; 0 hours) is reported as 53.7 ± 0.9 g/L, the “Butanol yield from glucose” value (C. acetobutylicum [1]; 0 hours) is reported as 0.001 g butanol/g glucose and the Residual glucose (C. acetobutylicum [1]; 6 hours) is reported as 56.2 ± 0.4 g/L. For the same substance, the “Butanol yield from glucose” value (C. acetobutylicum [1]; 6 hours) was 0.001 g butanol/g glucose, the Residual glucose (C. acetobutylicum [1]; 12 hours) was 56.1 ± 0.7 g/L and the “Butanol yield from glucose” value (C. acetobutylicum [1]; 12 hours) was 0.001 g butanol/g glucose. The Residual glucose (C. acetobutylicum [1]; 18 hours) was 54.7 ± 0.2^c g/L, the “Butanol yield from glucose” value (C. acetobutylicum [1]; 18 hours) was 0.002 g butanol/g glucose and the Residual glucose (C. acetobutylicum [1]; 21 hours) was 52.0 ± 0.3 g/L. The “Butanol yield from glucose” value (C. acetobutylicum [1]; 21 hours) was 0.002 g butanol/g glucose, the Residual glucose (C. acetobutylicum [1]; 24 hours) was 49.7 ± 0.5^c g/L and the “Butanol yield from glucose” value (C. acetobutylicum [1]; 24 hours) was 0.003 g butanol/g glucose. The Residual glucose (C. acetobutylicum [1]; 27 hours) was 46.4 ± 0.4 g/L, the “Butanol yield from glucose” value (C. acetobutylicum [1]; 27 hours) was 0.007 g butanol/g glucose and the Residual glucose (C. acetobutylicum [1]; 30 hours) was 46.6 ± 0.4 g/L. For the same substance, the “Butanol yield from glucose” value (C. acetobutylicum [1]; 30 hours) was 0.011 g butanol/g glucose, the Residual glucose (C. acetobutylicum [1]; 33 hours) was 45.9 ± 0.6 g/L and the “Butanol yield from glucose” value (C. acetobutylicum [1]; 33 hours) was 0.032 g butanol/g glucose. For the same substance, the Residual glucose (C. acetobutylicum [1]; 36 hours) was 46.2 ± 0.5 g/L, the “Butanol yield from glucose” value (C. acetobutylicum [1]; 36 hours) was 0.032 g butanol/g glucose and the Residual glucose (C. acetobutylicum [1]; 48 hours) was 45.7 ± 0.3 g/L. The “Butanol yield from glucose” value (C. acetobutylicum [1]; 48 hours) was 0.033 g butanol/g glucose, the Residual glucose (C. acetobutylicum [1]; 72 hours) was 45.8 ± 0.1 g/L and the “Butanol yield from glucose” value (C. acetobutylicum [1]; 72 hours) was 0.028 g butanol/g glucose. For the same substance, the Residual glucose (C. acetobutylicum [1]; 96 hours) was 45.8 ± 0.2^c g/L, the “Butanol yield from glucose” value (C. acetobutylicum [1]; 96 hours) was 0.029 g butanol/g glucose and the Butanol productivity (C. acetobutylicum [1]; sampling interval ending at 6 hours) was 0.000 g butanol/L-h. It also gave a Butanol productivity (C. acetobutylicum [1]; sampling interval ending at 12 hours) of 0.000 g butanol/L-h, a Butanol productivity (C. acetobutylicum [1]; sampling interval ending at 18 hours) of 0.010 g butanol/L-h and a Butanol productivity (C. acetobutylicum [1]; sampling interval ending at 21 hours) of 0.004 g butanol/L-h. For the same substance, the Butanol productivity (C. acetobutylicum [1]; sampling interval ending at 24 hours) was 0.024 g butanol/L-h, the Butanol productivity (C. acetobutylicum [1]; sampling interval ending at 27 hours) was 0.074 g butanol/L-h and the Butanol productivity (C. acetobutylicum [1]; sampling interval ending at 30 hours) was 0.069 g butanol/L-h. It also gave a Butanol productivity (C. acetobutylicum [1]; sampling interval ending at 33 hours) of 0.377 g butanol/L-h, a Butanol productivity (C. acetobutylicum [1]; sampling interval ending at 36 hours) of 0.002 g butanol/L-h and a Butanol productivity (C. acetobutylicum [1]; sampling interval ending at 48 hours) of 0.002 g butanol/L-h. For the same substance, the Butanol productivity (C. acetobutylicum [1]; sampling interval ending at 72 hours) was −0.011 g butanol/L-h, the Butanol productivity (C. acetobutylicum [1]; sampling interval ending at 96 hours) was 0.002 g butanol/L-h and the “Butanol concentration relative to untreated cultures” value (C. acetobutylicum [1]; 50 nM, 33 hours) was “more than double”. For the same substance, the “Yield of butanol relative to untreated cultures” value (C. acetobutylicum [1]; 50 nM, 33 hours) was “more than double”, the “Butanol yield increase compared to untreated culture” value (C. acetobutylicum [1]; 50 nM, end of the study (96 hours of growth)) was 53% and the “Butanol productivity relative to untreated cultures” value (C. acetobutylicum [1]; 50 nM, peak butanol formation stage (between 24 and 33 hours), listed as BP110517) was “nearly doubled; also recorded: more than doubled”. For the same substance, the “Increase in butanol yield” value (C. acetobutylicum [1]; BP110517, batch cultures (summary of findings)) was “more than 50%”, the Butanol concentration (C. acetobutylicum [1]; 50 nM, 0 hours) was 0.06 ± 0.00 g/L and the Butanol concentration (C. acetobutylicum [1]; 50 nM, 6 hours) was 0.06 ± 0.00 g/L. The Butanol concentration (C. acetobutylicum [1]; 50 nM, 12 hours) was 0.06 ± 0.00 g/L, the Butanol concentration (C. acetobutylicum [1]; 50 nM, 18 hours) was 0.09 ± 0.00^c g/L and the Butanol concentration (C. acetobutylicum [1]; 50 nM, 21 hours) was 0.10 ± 0.00 g/L. For the same substance, the Butanol concentration (C. acetobutylicum [1]; 50 nM, 24 hours) was 0.17 ± 0.01^c g/L, the Butanol concentration (C. acetobutylicum [1]; 50 nM, 27 hours) was 0.39 ± 0.03^c g/L and the Butanol concentration (C. acetobutylicum [1]; 50 nM, 30 hours) was 0.60 ± 0.03^c g/L. For the same substance, the Butanol concentration (C. acetobutylicum [1]; 50 nM, 33 hours) was 1.73 ± 0.27^c g/L, the Butanol concentration (C. acetobutylicum [1]; 50 nM, 36 hours) was 1.74 ± 0.16 g/L and the Butanol concentration (C. acetobutylicum [1]; 50 nM, 48 hours) was 1.76 ± 0.26^c g/L. The Butanol concentration (C. acetobutylicum [1]; 50 nM, 72 hours) was 1.48 ± 0.29 g/L, the Butanol concentration (C. acetobutylicum [1]; 50 nM, 96 hours) was 1.53 ± 0.29 g/L and the “Calculated Optimum Peptide Level, Average” value (C. acetobutylicum [2]; average over culture transfers, Expt. 1) was 48.5 ± 9.9 nM. For the same substance, the “Calculated Optimum Peptide Level, Average” value (C. acetobutylicum [2]; average over culture transfers, Expt. 2) was 43.9 ± 31.6 nM, the “Average optimum peptide treatment level” value (C. acetobutylicum [2]; average over culture transfers, both experiments for BP110517, single non-inhibitory experiment for BP1106213, fairly large standard deviations) was “mid to high 40” and the “Calculated optimum peptide treatment level” value (C. acetobutylicum [2]; transfer 4) was 38.7 nM. The “Calculated optimum peptide treatment level” value (C. acetobutylicum [2]; transfer 22) was 62.9 nM, the “Calculated Optimum Peptide Level” value (C. acetobutylicum [2]; transfer 4, Expt. 1) was 38.7 nM and the “Calculated Optimum Peptide Level” value (C. acetobutylicum [2]; transfer 7, Expt. 1) was 37.3 nM. For the same substance, the “Calculated Optimum Peptide Level” value (C. acetobutylicum [2]; transfer 7, Expt. 2) was 100 nM, the “Calculated Optimum Peptide Level” value (C. acetobutylicum [2]; transfer 10, Expt. 1) was 56.6 nM and the “Calculated Optimum Peptide Level” value (C. acetobutylicum [2]; transfer 10, Expt. 2) was 35.6 nM. The “Calculated Optimum Peptide Level” value (C. acetobutylicum [2]; transfer 13, Expt. 1) was 40.4 nM, the “Calculated Optimum Peptide Level” value (C. acetobutylicum [2]; transfer 13, Expt. 2) was 28.6 nM and the “Calculated Optimum Peptide Level” value (C. acetobutylicum [2]; transfer 16, Expt. 1) was 51.2 nM. For the same substance, the “Calculated Optimum Peptide Level” value (C. acetobutylicum [2]; transfer 16, Expt. 2) was 26.8 nM, the “Calculated Optimum Peptide Level” value (C. acetobutylicum [2]; transfer 19, Expt. 1) was 52.5 nM and the “Calculated Optimum Peptide Level” value (C. acetobutylicum [2]; transfer 19, Expt. 2) was 28.3 nM. The “Calculated Optimum Peptide Level” value (C. acetobutylicum [2]; transfer 22, Expt. 1) was 62.9 nM.
